Assay results published in ChEMBL document CHEMBL5376003, “Structure-Activity Relationship of FL118 Platform Position 7 Versus Position 9-Derived Compounds and Their Mechanism of Action and Antitumor Activity” (J Med Chem, 2023).
Active and inactive are the calls of the source. No cut-off for these calls is given here.

What was measured:
HCT-116 [1] = test: Induction of apoptosis in human HCT-116 cells assessed as upregulation of POLR2A mRNA expression at 10 to 500 nM incubated for 6 to 48 hrs by RNA analysis; format: functional, cell-based; conditions: dose 10-500 nM, time 6-48 hrs
HCT-116 [2] = test: Inhibition of cell migration in human HCT-116 cells assessed as intercellular distance at 5 nM incubated for 24 hrs by inverted phase-contrast microscopic analysis (reference value: 1 +/- 0.2 millimeter); format: functional
HCT-116 [3] = test: Induction of apoptosis in human HCT-116 cells assessed as downregulation of RANBP2 gene expression at 10 to 500 nM incubated for 6 to 48 hrs by RNA analysis; format: functional, cell-based; conditions: dose 10-500 nM, time 6-48 hrs
HCT-116 [4] = test: Induction of apoptosis in human HCT-116 cells assessed as downregulation of UMPS gene expression at 10 to 500 nM incubated for 6 to 48 hrs by RNA analysis; format: functional, cell-based; conditions: dose 10-500 nM, time 6-48 hrs
HCT-116 [5] = test: Induction of apoptosis in human HCT-116 cells assessed as modulation of DDX18 mRNA expression at 10 to 500 nM incubated for 6 to 48 hrs by RNA analysis; format: functional, cell-based; conditions: dose 10-500 nM, time 6-48 hrs
HCT-116 [6] = test: Induction of apoptosis in human HCT-116 cells assessed as downregulation of PUDP gene expression at 10 to 500 nM incubated for 6 to 48 hrs by RNA analysis; format: functional, cell-based; conditions: dose 10-500 nM, time 6-48 hrs
HCT-116 [7] = test: Induction of apoptosis in human HCT-116 cells assessed as modulation of DDX6 mRNA expression at 10 to 500 nM incubated for 6 to 48 hrs by RNA analysis; format: functional, cell-based; conditions: dose 10-500 nM, time 6-48 hrs
HCT-116 [8] = test: Induction of apoptosis in human HCT-116 cells assessed as modulation of TOP3B mRNA expression at 10 to 500 nM incubated for 6 to 48 hrs by RNA analysis; format: functional, cell-based; conditions: dose 10-500 nM, time 6-48 hrs
HCT-116 [9] = test: Induction of apoptosis in human HCT-116 cells assessed as modulation of DDX42 mRNA expression at 10 to 500 nM incubated for 6 to 48 hrs by RNA analysis; format: functional, cell-based; conditions: dose 10-500 nM, time 6-48 hrs
HCT-116 [10] = test: Induction of apoptosis in human HCT-116 cells assessed as modulation of DDX49 mRNA expression at 10 to 500 nM incubated for 6 to 48 hrs by RNA analysis; format: functional, cell-based; conditions: dose 10-500 nM, time 6-48 hrs
HCT-116 [11] = test: Induction of apoptosis in human HCT-116 cells assessed as modulation of TOP2B mRNA expression at 10 to 500 nM incubated for 6 to 48 hrs by RNA analysis; format: functional, cell-based; conditions: dose 10-500 nM, time 6-48 hrs
A549 = test: Growth inhibition of human A549 cells incubated for 48 hrs by MTT reagent based ELISA reader analysis; format: functional, cell-based; conditions: A549, 48 h
HCT-116 [12] = test: Induction of apoptosis in human HCT-116 cells assessed as downregulation of DCTPP1 gene expression at 10 to 500 nM incubated for 6 to 48 hrs by RNA analysis; format: functional, cell-based; conditions: dose 10-500 nM, time 6-48 hrs
HCT-116 [13] = test: Induction of apoptosis in human HCT-116 cells assessed as downregulation of DTYMK gene expression at 10 to 500 nM incubated for 6 to 48 hrs by RNA analysis; format: functional, cell-based; conditions: dose 10-500 nM, time 6-48 hrs
HCT-116 [14] = test: Induction of apoptosis in human HCT-116 cells assessed as upregulation of USP11 mRNA expression at 10 to 500 nM incubated for 6 to 48 hrs by RNA analysis; format: functional, cell-based; conditions: dose 10-500 nM, time 6-48 hrs
HCT-116 [15] = test: Induction of apoptosis in human HCT-116 cells assessed as upregulation of GADD45A mRNA expression at 10 to 500 nM incubated for 6 to 48 hrs by RNA analysis; format: functional, cell-based; conditions: dose 10-500 nM, time 6-48 hrs
HCT-116 [16] = test: Induction of apoptosis in human HCT-116 cells assessed as downregulation of MCL-1 protein expression incubated for 48 hrs by Western blotting analysis; format: functional, cell-based
HCT-116 [17] = test: Induction of apoptosis in human HCT-116 cells assessed as downregulation of PCK2 gene expression at 10 to 500 nM incubated for 6 to 48 hrs by RNA analysis; format: functional, cell-based; conditions: dose 10-500 nM, time 6-48 hrs
HCT-116 [18] = test: Induction of apoptosis in human HCT-116 cells assessed as downregulation of NUP155 gene expression at 10 to 500 nM incubated for 6 to 48 hrs by RNA analysis; format: functional, cell-based; conditions: dose 10-500 nM, time 6-48 hrs
HCT-116 [19] = test: Induction of apoptosis in human HCT-116 cells assessed as downregulation of NUP160 gene expression at 10 to 500 nM incubated for 6 to 48 hrs by RNA analysis; format: functional, cell-based; conditions: dose 10-500 nM, time 6-48 hrs
HCT-116 [20] = test: Induction of apoptosis in human HCT-116 cells assessed as downregulation of ACACA gene expression at 10 to 500 nM incubated for 6 to 48 hrs by RNA analysis; format: functional, cell-based; conditions: dose 10-500 nM, time 6-48 hrs
HCT-116 [21] = test: Induction of apoptosis in human HCT-116 cells assessed as downregulation of NT5C2 gene expression at 10 to 500 nM incubated for 6 to 48 hrs by RNA analysis; format: functional, cell-based; conditions: dose 10-500 nM, time 6-48 hrs
HCT-116 [22] = test: Induction of apoptosis in human HCT-116 cells assessed as downregulation of ADSL gene expression at 10 to 500 nM incubated for 6 to 48 hrs by RNA analysis; format: functional, cell-based; conditions: dose 10-500 nM, time 6-48 hrs
HCT-116 [23] = test: Induction of apoptosis in human HCT-116 cells assessed as upregulation of BIK mRNA expression at 10 to 500 nM incubated for 6 to 48 hrs by RNA analysis; format: functional, cell-based; conditions: dose 10-500 nM, time 6-48 hrs
HCT-116 [24] = test: Induction of apoptosis in human HCT-116 cells assessed as downregulation of SLC25A13 gene expression at 10 to 500 nM incubated for 6 to 48 hrs by RNA analysis; format: functional, cell-based; conditions: dose 10-500 nM, time 6-48 hrs
HCT-116 [25] = test: Induction of apoptosis in human HCT-116 cells assessed as downregulation of END1 gene expression at 10 to 500 nM incubated for 6 to 48 hrs by RNA analysis; format: functional, cell-based; conditions: dose 10-500 nM, time 6-48 hrs
HCT-116 [26] = test: Activation of innate immune response in human HCT-116 cells assessed as upregulation of IRF7 gene expression at 10 to 500 nM incubated for 6 to 48 hrs by RNA analysis; format: functional, cell-based; conditions: dose 10-500 nM, time 6-48 hrs
HCT-116 [27] = test: Induction of apoptosis in human HCT-116 cells assessed as upregulation of DDX5 mRNA expression at 50 nM incubated for 24 hrs by RNA analysis; format: functional, cell-based
HCT-116 [28] = test: Induction of apoptosis in human HCT-116 cells assessed as downregulation of TPR gene expression at 10 to 500 nM incubated for 6 to 48 hrs by RNA analysis; format: functional, cell-based; conditions: dose 10-500 nM, time 6-48 hrs
HCT-116 [29] = test: Induction of apoptosis in human HCT-116 cells assessed as upregulation of ADCY6 mRNA expression at 10 to 500 nM incubated for 6 to 48 hrs by RNA analysis; format: functional, cell-based; conditions: dose 10-500 nM, time 6-48 hrs
HCT-116 [30] = test: Induction of apoptosis in human HCT-116 cells assessed as downregulation of NUDT15 gene expression at 10 to 500 nM incubated for 6 to 48 hrs by RNA analysis; format: functional, cell-based; conditions: dose 10-500 nM, time 6-48 hrs

Compound	Activity (HCT-116 [1])	Activity (HCT-116 [2])	Activity (HCT-116 [3])	Activity (HCT-116 [4])	Activity (HCT-116 [5])	Activity (HCT-116 [6])	Activity (HCT-116 [7])	Activity (HCT-116 [8])	Activity (HCT-116 [9])	Activity (HCT-116 [10])	Activity (HCT-116 [11])	IC50 (A549)	Activity (HCT-116 [12])	Activity (HCT-116 [13])	Activity (HCT-116 [14])	Activity (HCT-116 [15])	Activity (HCT-116 [16])	Activity (HCT-116 [17])	Activity (HCT-116 [18])	Activity (HCT-116 [19])	also measured
CC[C@@]1(O)C(=O)OCc2c1cc1n(c2=O)Cc2c-1nc1cc3c(cc1c2-c1cc(OC)cc(OC)c1)OCO3	Active	1.5 mm	Active	Active	Active	Active	Active	Active	Active	Active	Active	28.5 nM	Active	Active	Active	Active	Active	Active	Active	Active	Activity (HCT-116 [20]): Active; Activity (HCT-116 [21]): Active; Activity (HCT-116 [22]): Active; Activity (HCT-116 [23]): Active; Activity (HCT-116 [24]): Active; Activity (HCT-116 [25]): Active; Activity (HCT-116 [26]): Active; Activity (HCT-116 [27]): inactive; Activity (HCT-116 [28]): Active
CC[C@@]1(O)C(=O)OCc2c1cc1n(c2=O)Cc2c-1nc1cc3c(cc1c2-c1ccc(OC)cc1)OCO3	Active	1.3 mm	Active	Active	Active	Active	Active	Active	Active	Active	Active	43.3 nM	Active	Active	Active	Active	Active	Active	Active	Active	Activity (HCT-116 [29]): Active; Activity (HCT-116 [20]): Active; Activity (HCT-116 [30]): Active; Activity (HCT-116 [21]): Active; Activity (HCT-116 [22]): Active; Activity (HCT-116 [23]): Active; Activity (HCT-116 [24]): Active; Activity (HCT-116 [25]): Active; Activity (HCT-116 [26]): Active; Activity (HCT-116 [27]): inactive; Activity (HCT-116 [28]): Active
